IC50 data for one compound are collected here from patent US6482805B2 (Parker Hughes Institute, priority 1998, dated 2002).

This assay deals with HIV-1 strain HTLVIIIB
The assay is described as follows: In vitro anti-HIV-1 activity, HTLVIIIB p24 assay in PBMC (Example 9). The conditions noted are these: Human immunodeficiency virus 1; HIV-1 replication in PBMC, p24 antigen production. The class given is cell-based. On the procedure:
The HIV-1 strain, HTLVIIIB, which was propagated in CCRF-CEM cells, was used for in vitro assays of the anti-HIV-1 activity of selected novel WHI-07 analogues. Cell-free supernatants of HTLVIIIB-infected CCRF-CEM cells were harvested, dispensed into 1 ml aliquots, and frozen at −70° C. Titration of stock virus was performed by examining its cytopathic effects in MT-2 cells. [see, Uckun FM, et al., Antimicrob Agents Chemther 1998; 42:383-388]. Normal human peripheral blood mononuclear cells (PBMC) from HIV-negative donors were cultured for 72 h in RPMI 1640 supplemented with 20%(v/v) heat-inactivated fetal bovine serum (FBS), 3% interleukin-2, 2 mM L-glutamine, 25 mM HEPES, 2 g/L NaHCO3, 50 μg/ml gentamicin, and 4 μg/ml phytohemagglutinin prior to exposure to HIV-1 at a multiplicity of infection of 0.1 during a 1 h adsorption period at 37° C. in a humidified 5% CO2 atmosphere. […] Percent viral inhibition was calculated by comparing the p24 values from the drug-treated infected cells with p24 values from untreated infected cells (i.e., virus controls). […] A microculture tetrazolium assay, using 2,3-bis(2-methoxy-4-nitro-5-sulfophenyl)-5-[(phenylamino)-carbonyl]-2H-tetrazolium hydroxide, was performed to quantitate cellular proliferation.

Take `COC(=O)C(C)NP(=O)(OCC1OC(N2C(=O)NC(=O)C(C)(Br)C2OC)CC1N=[N+]=[N-])Oc1ccc(Br)cc1` (stereo not shown) [WHI-07, 5-Bromo-6-methoxy-5,6-dihydro-3′-azidothymidine-5′-(p-Bromophenyl Methoxyalaninyl Phosphate)]: the IC50 (commonly the concentration needed to halve the response being measured) was 5 nM.
